Experimental data published in paper PMC10619443, “Structural snapshots of Mycobacterium tuberculosis enolase reveal dual mode of 2PG binding and its implication in enzyme catalysis” (IUCrJ, 2023).

Target: T1, MtEno (Mycobacterium tuberculosis, UniProt P9WNL1)
T1 construct: gene eno
T1 sequence (P9WNL1 whole entry): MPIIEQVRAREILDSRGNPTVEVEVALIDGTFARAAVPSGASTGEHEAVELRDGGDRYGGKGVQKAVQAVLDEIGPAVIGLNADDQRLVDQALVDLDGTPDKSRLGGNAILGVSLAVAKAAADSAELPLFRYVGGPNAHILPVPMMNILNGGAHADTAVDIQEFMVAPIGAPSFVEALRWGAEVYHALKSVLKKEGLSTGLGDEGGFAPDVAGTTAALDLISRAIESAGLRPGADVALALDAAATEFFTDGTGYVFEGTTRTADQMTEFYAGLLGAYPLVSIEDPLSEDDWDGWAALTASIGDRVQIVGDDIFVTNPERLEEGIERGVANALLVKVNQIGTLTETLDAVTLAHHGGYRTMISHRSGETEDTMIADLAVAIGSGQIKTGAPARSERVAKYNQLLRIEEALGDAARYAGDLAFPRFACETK

For `O=C(O)[C@@H](CO)OP(=O)(O)O` [2PG, 2-phosphoglycerate], the X-ray crystal structure was “Of the two structures of MtEno-2PG, one harbored the 2PG-canonical pose”.
